According to ChEMBL document CHEMBL1145434, “Optimization of novel combi-molecules: identification of balanced and mixed bcr-abl/DNA targeting properties” (Bioorg Med Chem Lett, 2007):
The source made the active and inactive calls. No cut-off for these calls is given here.

Tests used:
Homo sapiens = organism: Homo sapiens; test: Effect on DNA damage in p210 transfected M07 cells; format: functional, cell-based
K562 = test: cells; settings: Homo sapiens
Description: Cytotoxicity against K562 cells by MTT assay

[1] = target: Tyrosine-protein kinase ABL1 (Homo sapiens, UniProt P00519)
Sequence of Tyrosine-protein kinase ABL1 (P00519 whole entry): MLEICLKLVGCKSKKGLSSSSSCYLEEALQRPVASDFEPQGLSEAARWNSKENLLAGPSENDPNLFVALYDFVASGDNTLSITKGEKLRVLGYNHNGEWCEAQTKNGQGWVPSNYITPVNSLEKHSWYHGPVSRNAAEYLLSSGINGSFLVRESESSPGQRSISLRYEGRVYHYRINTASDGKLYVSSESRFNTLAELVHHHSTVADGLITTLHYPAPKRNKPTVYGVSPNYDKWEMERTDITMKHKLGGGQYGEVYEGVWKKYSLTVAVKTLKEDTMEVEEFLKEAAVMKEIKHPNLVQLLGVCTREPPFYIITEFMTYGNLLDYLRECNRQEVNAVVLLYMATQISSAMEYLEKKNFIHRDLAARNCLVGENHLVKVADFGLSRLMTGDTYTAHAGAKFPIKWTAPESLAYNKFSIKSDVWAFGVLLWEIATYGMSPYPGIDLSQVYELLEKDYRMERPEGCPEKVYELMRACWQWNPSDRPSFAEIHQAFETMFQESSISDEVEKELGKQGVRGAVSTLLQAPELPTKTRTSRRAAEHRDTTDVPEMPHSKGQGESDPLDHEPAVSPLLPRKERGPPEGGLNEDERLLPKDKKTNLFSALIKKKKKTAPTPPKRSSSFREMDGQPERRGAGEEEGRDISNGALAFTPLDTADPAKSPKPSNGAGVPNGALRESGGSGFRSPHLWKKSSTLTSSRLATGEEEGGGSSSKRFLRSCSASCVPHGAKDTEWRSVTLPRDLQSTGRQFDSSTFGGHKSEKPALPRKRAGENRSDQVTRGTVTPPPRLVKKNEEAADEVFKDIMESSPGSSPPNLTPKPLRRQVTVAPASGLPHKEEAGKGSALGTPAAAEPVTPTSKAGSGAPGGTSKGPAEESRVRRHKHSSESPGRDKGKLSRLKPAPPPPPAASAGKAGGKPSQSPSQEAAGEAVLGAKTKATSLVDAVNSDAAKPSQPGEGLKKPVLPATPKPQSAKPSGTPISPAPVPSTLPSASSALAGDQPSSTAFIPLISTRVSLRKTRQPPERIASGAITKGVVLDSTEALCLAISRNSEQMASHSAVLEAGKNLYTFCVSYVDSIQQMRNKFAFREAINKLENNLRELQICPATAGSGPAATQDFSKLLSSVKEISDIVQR

IC50 (K562) [nM]	SMILES	Activity (Homo sapiens)	IC50 [1] [nM]
113	CNN=Nc1ccc(C(=O)Nc2ccc(C)c(Nc3nccc(-c4cccnc4)n3)c2)cc1C(F)(F)F	Active	
187	Cc1ccc(NC(=O)c2ccc(N=NN(C)CO)c(C(F)(F)F)c2)cc1Nc1nccc(-c2cccnc2)n1		
	Cc1ccc(NC(=O)c2ccc(N)cc2)cc1Nc1nccc(-c2cccnc2)n1		> 10000
316	Cc1ccc(NC(=O)c2ccc(N)c(C(F)(F)F)c2)cc1Nc1nccc(-c2cccnc2)n1		
9980	CNN=Nc1ccc(C(=O)Nc2ccc(C)c(Nc3nccc(-c4cccnc4)n3)c2)cc1Cl		
52	Cc1ccc(NC(=O)c2ccc(N=NN(C)C)c(C(F)(F)F)c2)cc1Nc1nccc(-c2cccnc2)n1		

SMILES	IC50 (K562) [nM]	Activity (Homo sapiens)	IC50 [1] [nM]
Cc1ccc(NC(=O)c2ccc(CN(C)CCCl)cc2)cc1Nc1nccc(-c2cccnc2)n1	79700		
Cc1ccc(NC(=O)c2ccc(CN(CCCl)CCCl)cc2)cc1Nc1nccc(-c2cccnc2)n1	> 100000		> 10000
Cc1ccc(NC(=O)c2ccc(N(CCCl)CCCl)cc2)cc1Nc1nccc(-c2cccnc2)n1	2460		220
